pIC50: −log10 of the molar value.
Tests used:
Experiment in all cases: filter binding kinase assay
Format in all cases: biochemical
MAPKAPK2 = biological target: T1, MAPKAPK2 (Homo sapiens, UniProt P49137); conditions: derived from % inhibition at 1 μM
T1 construct: purchased
Outline: (§1)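 Radioactivity retained on P81 phosphocellulose filters is the read-out. Before the reaction begins, test substance sits with kinase and substrate for 5 minutes at room temperature. The ATP solution added is 5, 20 or 50 […] according to the kinase, and acid quench ends the reaction.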

RPS6KA1 = biological target: T2, RPS6KA1 (Homo sapiens, UniProt Q15418); conditions: derived from % inhibition at 1 μM
T2 construct: purchased
Outline: as §1

PRKACA = biological target: T3, PRKACA (Homo sapiens, UniProt P17612); conditions: derived from % inhibition at 1 μM
T3 construct: purchased
Outline: as §1

MARK2 = biological target: T4, MARK2 (Homo sapiens, UniProt Q7KZI7); conditions: for pIC50: derived from % inhibition at 1 μM
T4 construct: purchased
Outline: as §1

YES1 = biological target: T5, YES1 (Homo sapiens, UniProt P07947); conditions: derived from % inhibition at 1 μM
T5 construct: purchased
Outline: as §1

PAK6 = biological target: T6, PAK6 (Homo sapiens, UniProt Q9NQU5); conditions: derived from % inhibition at 1 μM
T6 construct: purchased
Outline: as §1

HIPK2 = biological target: T7, HIPK2 (Homo sapiens, UniProt Q9H2X6); conditions: for pIC50: derived from % inhibition at 1 μM
T7 construct: purchased
Outline: as §1

MKNK2 = biological target: T8, MKNK2 (Homo sapiens, UniProt Q9HBH9); conditions: derived from % inhibition at 1 μM
T8 construct: purchased
Outline: as §1

IGF1R = biological target: T9, IGF1R (Homo sapiens, UniProt P08069); conditions: derived from % inhibition at 1 μM
T9 construct: purchased
Outline: as §1

DYRK3 = biological target: T10, DYRK3 (Homo sapiens, UniProt O43781); conditions: derived from % inhibition at 1 μM
T10 construct: purchased
T10 sequence (O43781 1-588): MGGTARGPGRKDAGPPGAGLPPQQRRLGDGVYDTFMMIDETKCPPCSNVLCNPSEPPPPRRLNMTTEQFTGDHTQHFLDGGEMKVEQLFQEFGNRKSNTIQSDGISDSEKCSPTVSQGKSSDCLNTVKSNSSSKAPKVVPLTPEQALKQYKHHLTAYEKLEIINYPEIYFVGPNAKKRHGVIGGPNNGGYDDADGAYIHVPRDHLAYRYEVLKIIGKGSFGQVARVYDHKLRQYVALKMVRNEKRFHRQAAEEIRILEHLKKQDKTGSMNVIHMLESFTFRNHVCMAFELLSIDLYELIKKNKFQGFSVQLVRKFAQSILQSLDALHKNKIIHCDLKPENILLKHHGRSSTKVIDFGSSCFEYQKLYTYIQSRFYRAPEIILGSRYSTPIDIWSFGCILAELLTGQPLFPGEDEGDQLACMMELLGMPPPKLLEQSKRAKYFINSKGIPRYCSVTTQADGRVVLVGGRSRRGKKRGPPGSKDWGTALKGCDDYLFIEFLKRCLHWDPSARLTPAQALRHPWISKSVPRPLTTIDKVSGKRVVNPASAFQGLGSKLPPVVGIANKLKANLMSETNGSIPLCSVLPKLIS
Outline: as §1

PRKCZ = biological target: T11, PRKCZ (Homo sapiens, UniProt Q05513); conditions: derived from % inhibition at 1 μM
T11 construct: purchased
T11 sequence (Q05513 1-592): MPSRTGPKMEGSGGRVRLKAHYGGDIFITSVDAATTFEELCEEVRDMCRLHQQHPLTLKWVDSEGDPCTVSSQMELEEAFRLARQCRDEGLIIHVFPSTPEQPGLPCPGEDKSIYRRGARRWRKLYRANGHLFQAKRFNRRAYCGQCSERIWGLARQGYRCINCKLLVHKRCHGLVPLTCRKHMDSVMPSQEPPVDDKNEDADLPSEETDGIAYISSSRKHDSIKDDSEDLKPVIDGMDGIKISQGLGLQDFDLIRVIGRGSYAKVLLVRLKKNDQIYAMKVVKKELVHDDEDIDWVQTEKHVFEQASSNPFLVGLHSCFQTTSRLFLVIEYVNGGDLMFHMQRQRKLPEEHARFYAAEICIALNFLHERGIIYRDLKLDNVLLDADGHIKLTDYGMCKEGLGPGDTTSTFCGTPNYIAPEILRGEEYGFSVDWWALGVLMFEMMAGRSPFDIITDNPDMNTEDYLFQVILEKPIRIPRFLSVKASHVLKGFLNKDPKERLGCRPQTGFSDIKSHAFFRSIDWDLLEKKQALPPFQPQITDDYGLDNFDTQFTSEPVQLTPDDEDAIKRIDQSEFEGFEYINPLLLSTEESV
Outline: as §1

LCK = biological target: T12, LCK (Homo sapiens, UniProt P06239); conditions: derived from % inhibition at 1 μM
T12 construct: purchased
Outline: as §1

MET = biological target: T13, MET (Homo sapiens, UniProt P08581); conditions: derived from % inhibition at 1 μM
T13 construct: 6His (N); purchased Upstate 14-526; host or cells: insect cells (Sf21; S. frugiperda), baculovirus
Outline: as §1

T9 sequence (P08069 31-1367, species assumed): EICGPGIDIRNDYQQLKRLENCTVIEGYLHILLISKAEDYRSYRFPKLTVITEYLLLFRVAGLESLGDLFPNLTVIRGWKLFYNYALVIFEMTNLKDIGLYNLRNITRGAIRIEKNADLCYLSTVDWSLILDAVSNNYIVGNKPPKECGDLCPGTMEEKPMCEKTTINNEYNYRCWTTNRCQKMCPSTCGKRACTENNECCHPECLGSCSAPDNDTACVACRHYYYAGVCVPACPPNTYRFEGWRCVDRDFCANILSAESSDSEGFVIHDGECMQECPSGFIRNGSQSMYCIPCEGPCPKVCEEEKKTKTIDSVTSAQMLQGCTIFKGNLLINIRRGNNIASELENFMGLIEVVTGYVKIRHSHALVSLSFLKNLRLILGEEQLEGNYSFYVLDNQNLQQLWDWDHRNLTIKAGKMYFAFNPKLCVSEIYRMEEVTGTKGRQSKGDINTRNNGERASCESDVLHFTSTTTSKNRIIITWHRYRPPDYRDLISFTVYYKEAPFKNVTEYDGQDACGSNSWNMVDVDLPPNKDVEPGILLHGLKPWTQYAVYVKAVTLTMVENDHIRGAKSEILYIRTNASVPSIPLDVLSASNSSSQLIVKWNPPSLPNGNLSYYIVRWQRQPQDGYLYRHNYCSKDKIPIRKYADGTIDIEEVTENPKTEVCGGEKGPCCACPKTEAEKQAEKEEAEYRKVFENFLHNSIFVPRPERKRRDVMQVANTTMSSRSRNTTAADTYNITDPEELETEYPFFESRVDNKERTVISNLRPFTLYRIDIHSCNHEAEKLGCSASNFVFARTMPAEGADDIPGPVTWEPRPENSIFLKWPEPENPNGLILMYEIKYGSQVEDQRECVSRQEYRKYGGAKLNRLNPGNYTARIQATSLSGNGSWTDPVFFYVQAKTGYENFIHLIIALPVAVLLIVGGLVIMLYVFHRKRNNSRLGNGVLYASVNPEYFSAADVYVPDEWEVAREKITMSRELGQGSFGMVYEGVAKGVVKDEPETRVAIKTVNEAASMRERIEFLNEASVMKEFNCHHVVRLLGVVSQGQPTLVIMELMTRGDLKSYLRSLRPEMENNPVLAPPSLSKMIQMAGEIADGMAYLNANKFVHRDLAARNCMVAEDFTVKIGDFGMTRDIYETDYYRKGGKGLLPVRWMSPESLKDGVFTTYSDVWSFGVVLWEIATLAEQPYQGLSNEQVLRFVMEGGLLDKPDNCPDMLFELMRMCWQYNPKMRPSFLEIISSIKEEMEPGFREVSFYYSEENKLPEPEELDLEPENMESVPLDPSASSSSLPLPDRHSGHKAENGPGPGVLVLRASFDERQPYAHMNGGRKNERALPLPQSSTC
T6 sequence (Q9NQU5 whole entry, species assumed): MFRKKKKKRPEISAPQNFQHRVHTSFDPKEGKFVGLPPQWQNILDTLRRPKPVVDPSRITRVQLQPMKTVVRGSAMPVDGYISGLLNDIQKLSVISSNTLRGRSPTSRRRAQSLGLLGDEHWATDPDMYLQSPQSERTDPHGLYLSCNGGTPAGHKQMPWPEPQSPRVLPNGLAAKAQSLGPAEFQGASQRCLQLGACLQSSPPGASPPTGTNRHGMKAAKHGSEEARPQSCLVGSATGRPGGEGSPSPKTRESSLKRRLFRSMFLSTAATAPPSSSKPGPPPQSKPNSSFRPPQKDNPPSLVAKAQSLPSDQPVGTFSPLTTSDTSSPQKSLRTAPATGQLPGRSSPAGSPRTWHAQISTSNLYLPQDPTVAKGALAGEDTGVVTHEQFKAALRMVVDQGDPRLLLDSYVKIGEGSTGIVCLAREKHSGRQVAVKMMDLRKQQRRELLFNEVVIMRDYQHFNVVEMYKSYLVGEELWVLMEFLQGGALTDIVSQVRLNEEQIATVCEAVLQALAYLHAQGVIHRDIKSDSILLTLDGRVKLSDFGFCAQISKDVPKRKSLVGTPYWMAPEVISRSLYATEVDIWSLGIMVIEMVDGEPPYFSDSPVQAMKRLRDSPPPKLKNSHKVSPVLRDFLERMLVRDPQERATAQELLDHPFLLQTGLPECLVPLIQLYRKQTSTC
T12 sequence (P06239 whole entry, species assumed): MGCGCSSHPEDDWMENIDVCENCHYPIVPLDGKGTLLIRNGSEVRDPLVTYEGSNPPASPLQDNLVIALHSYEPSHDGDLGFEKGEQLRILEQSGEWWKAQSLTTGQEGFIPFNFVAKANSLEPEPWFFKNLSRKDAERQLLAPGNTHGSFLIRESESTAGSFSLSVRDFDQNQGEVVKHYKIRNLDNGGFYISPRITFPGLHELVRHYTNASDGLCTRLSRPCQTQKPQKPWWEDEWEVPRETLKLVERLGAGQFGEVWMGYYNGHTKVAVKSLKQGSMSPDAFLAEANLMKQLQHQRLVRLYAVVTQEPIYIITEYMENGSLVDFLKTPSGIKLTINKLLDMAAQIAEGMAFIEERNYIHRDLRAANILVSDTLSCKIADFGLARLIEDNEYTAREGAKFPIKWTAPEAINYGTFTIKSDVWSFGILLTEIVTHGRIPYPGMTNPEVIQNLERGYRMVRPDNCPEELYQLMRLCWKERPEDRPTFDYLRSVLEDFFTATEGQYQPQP
T13 sequence (P08581 25-1390): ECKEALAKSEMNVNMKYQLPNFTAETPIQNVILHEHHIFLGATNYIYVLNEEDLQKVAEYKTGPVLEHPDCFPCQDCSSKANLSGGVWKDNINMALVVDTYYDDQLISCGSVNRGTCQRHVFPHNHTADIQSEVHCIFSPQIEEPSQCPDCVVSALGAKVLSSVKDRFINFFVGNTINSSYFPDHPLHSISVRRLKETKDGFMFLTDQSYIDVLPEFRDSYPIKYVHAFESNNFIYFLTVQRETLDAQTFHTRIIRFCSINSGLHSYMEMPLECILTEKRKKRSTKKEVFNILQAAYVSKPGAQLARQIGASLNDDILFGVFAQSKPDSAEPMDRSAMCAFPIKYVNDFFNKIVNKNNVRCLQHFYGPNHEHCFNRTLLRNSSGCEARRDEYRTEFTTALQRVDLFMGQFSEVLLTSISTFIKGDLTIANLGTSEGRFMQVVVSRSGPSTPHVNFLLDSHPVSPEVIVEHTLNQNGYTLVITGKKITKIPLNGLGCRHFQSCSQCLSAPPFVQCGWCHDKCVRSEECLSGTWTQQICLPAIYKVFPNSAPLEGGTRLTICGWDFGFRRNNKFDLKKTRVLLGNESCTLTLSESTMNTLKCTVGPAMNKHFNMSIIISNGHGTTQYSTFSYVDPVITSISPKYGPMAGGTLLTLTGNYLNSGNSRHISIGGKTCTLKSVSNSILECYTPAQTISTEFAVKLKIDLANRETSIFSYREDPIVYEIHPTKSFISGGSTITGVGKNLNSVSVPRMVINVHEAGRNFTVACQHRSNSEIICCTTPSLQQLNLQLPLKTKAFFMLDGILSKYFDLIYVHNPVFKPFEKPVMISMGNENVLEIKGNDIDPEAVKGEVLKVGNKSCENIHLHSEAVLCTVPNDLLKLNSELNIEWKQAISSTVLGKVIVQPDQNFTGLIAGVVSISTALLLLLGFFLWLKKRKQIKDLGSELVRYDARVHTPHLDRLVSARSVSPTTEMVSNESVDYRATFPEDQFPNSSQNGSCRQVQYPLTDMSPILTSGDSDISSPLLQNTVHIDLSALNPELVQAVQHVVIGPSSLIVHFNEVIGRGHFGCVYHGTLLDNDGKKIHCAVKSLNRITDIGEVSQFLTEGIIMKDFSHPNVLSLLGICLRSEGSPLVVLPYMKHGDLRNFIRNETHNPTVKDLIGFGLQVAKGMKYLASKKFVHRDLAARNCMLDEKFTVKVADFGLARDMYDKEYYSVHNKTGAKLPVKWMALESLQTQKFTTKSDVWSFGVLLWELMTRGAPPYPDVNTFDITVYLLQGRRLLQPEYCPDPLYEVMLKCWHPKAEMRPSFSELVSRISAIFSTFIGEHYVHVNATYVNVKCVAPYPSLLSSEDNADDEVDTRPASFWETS
T8 sequence (Q9HBH9 whole entry, species assumed): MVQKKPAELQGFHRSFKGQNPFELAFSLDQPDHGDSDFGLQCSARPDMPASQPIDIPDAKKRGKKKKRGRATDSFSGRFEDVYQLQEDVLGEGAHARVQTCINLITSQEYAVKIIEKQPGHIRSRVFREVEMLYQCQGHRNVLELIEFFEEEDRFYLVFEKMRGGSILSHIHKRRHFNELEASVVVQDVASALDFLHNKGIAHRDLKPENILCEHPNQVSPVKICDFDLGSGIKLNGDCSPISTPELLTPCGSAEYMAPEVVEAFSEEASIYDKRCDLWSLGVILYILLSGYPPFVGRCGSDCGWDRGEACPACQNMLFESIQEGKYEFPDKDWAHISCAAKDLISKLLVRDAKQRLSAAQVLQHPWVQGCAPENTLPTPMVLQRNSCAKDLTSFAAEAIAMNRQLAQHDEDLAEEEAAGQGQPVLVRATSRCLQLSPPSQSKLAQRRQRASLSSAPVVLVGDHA
T5 sequence (P07947 whole entry, species assumed): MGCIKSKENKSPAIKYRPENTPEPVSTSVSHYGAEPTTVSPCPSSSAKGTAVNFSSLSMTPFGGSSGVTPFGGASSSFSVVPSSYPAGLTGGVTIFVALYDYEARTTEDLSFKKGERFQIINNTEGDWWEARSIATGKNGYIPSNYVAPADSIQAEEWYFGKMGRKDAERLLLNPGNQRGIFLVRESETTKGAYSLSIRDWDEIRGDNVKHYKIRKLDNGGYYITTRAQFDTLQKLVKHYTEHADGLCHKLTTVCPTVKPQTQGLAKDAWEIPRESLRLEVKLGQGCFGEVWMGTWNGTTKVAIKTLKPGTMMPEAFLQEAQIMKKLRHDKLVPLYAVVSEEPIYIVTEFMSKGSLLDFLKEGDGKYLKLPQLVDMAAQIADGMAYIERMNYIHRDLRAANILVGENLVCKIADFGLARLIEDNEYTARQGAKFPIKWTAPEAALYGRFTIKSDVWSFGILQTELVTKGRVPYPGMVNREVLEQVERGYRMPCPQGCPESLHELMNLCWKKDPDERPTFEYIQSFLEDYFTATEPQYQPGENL

SMILES | pIC50 (MAPKAPK2) | pIC50 (RPS6KA1) | pIC50 (PRKACA) | pIC50 (MARK2) | pIC50 (YES1) | pIC50 (PAK6) | pIC50 (HIPK2) | pIC50 (MKNK2) | pIC50 (IGF1R) | pIC50 (DYRK3) | pIC50 (PRKCZ) | pIC50 (LCK) | pIC50 (MET) | remaining activity at 1 µM (MARK2; read-out: residual kinase activity MARK2) | remaining activity at 1 µM (HIPK2; read-out: residual kinase activity HIPK2)
CC(C)(C)OC(=O)Nc1ncsc1C#CCN1C(=O)c2ccccc2C1=O [Compound A26, tert-butyl{5-[3-(1,3-dioxo-1,3-dihydroisoindol-2-yl)prop-1-ynyl]-thiazol-4-yl}carbamate] | 4.00 to 5.00 | < 6.00 | 4.00 to 5.00 | 5.00 to 6.00 | < 6.00 | < 6.00 | 5.00 to 6.00 | 4.00 to 5.00 | < 6.00 | 5.00 to 6.00 | 4.00 to 5.00 | < 6.00 | < 6.00 |  | 
Nc1ncsc1C#Cc1cccc(O)c1 [Compound A27, 3-(4-aminothiazol-5-ylethynyl)phenol] | 4.00 to 5.00 | < 6.00 | 5.00 to 6.00 | 4.00 to 5.00 | < 6.00 | 4.00 to 5.00 | < 6.00 | < 6.00 | < 6.00 | 4.00 to 5.00 | < 6.00 | 5.00 to 6.00 | 4.00 to 5.00 |  | 
c1ccc(Cc2c[nH]c3ncsc23)cc1 [Compound A7, 6-benzyl-4H-pyrrolo[2,3-d]thiazole] | < 6.00 | 4.00 to 5.00 | < 6.00 | 4.00 to 5.00 | < 6.00 | < 6.00 | < 6.00 | < 6.00 | 4.00 to 5.00 | 4.00 to 5.00 | < 6.00 | 4.00 to 5.00 | 5.00 to 6.00 |  | 
CC(C)(C)OC(=O)Nc1nc(-c2ccncc2)sc1C#CCN1CCOCC1 [Compound A25, tert-butyl[5-(3-morpholin-4-ylprop-1-ynyl)-2-pyridin-4-ylthiazol-4-yl]-carbamate] | < 6.00 | 4.00 to 5.00 | < 6.00 | < 6.00 | < 6.00 | 4.00 to 5.00 | < 6.00 | < 6.00 | < 6.00 | 4.00 to 5.00 | 4.00 to 5.00 | < 6.00 | < 6.00 |  | 
Nc1ncsc1C#Cc1cnc2[nH]ccc2c1 [Compound A22, 5-(1H-pyrrolo[2,3-b]pyridin-5-ylethynyl)thiazol-4-ylamine] | < 6.00 | < 6.00 | 5.00 to 6.00 | 6.00 to 8.00 | 5.00 to 6.00 | 4.00 to 5.00 | 6.00 to 8.00 | < 6.00 | 5.00 to 6.00 | 4.00 to 5.00 | < 6.00 | < 6.00 | < 6.00 | 31% | 44%
